Measurements as given in patent US10533034B2, “Human iNKT cell activation using glycolipids” (ACADEMIA SINICA, priority 2014, dated 2020).

Assays:
[1] = tested on: iNKT TCR of DN3A4-1.2 Vα14+ iNKT hybridoma cells; experiment: Binding avidity of mCD1d-loaded glycolipids to Vα14+ iNKT cells (ternary interaction); set-up: species or system mouse
Protocol: (3A) DN3A4-1.2 Vα14+ iNKT hybridoma cells and (3B) 7DW8-5-expanded Vα24^+ iNKT cells were incubated with various concentrations of the indicated dimeric mCD d-glycolipid and hCD1d-glycolipid complexes for 30 min at 4° C., respectively. The level of bound complexes at the indicated concentration was detected by anti-mIgG1 secondary antibody and analyzed by flow cytometry. The relationship between the binding percentage and the concentration of CD1ddi-glycolipids complex was plotted in mice (3A) and humans (3B). KD values in mice (3C) and humans (3D) were calculated from Scatchard transformation of the plot (3A) and 3B), respectively. Assay was performed in duplicates.
Briefly, murine CD1d:Ig dimer (BD Biosciences PharMingen, San Diego, Calif.) was loaded with glycolipids at a molar ratio of 1:10 or vehicle for overnight at 37° C. Murine 1.2 Vα14+ iNKT cells were incubated with various doses of dimer-glycolipid complex in buffer containing azide (0.05%) for 30 min at 4° C. These cells were then stained with anti-mouse IgG1-PE mAb (A85-1) for another 30 min at 4° C., followed by washing, fixation with 4% paraformaldehyde (PFA), and the bound mCD1d dimer complexes were detected by flow cytometry. The binding curve and linear fit of the Scatchard transformation were plotted by Graphpad Prism software.
Next, we measured the ternary interaction between CD1d-glcolipid complex and the iNKT TCR in mice and humans. Different concentrations of mCD1d^di-glycolipid and hCD1d^di-glycolipid complexes were incubated with fixed amounts of DN3A4-1.2 murine iNKT hybridoma cells and human Vα24+/Vβ11^+ iNKT cells, respectively. The level of bound complexes at the indicated concentration was detected by anti-mIgG1 secondary antibody and analyzed by flow cytometry (FIGS. 3A and 3B). The KD of the ternary complex was calculated from the Scatchard transformation of the plots in FIGS. 3A and 3B using GraphPad Prism software. […] This was consistent with the observation that higher percentages of C1-pulsed splenocytes were stained by the mCD1d-7DW8-5 complex (36.2±5.0%) than mCD1d-7DW8-5-Glc complex (17.1±0.8%) (FIG. 11).

mCD1d dimer = experiment: Binding strength of the binary complex between mCD1d and glycolipid (L363 antibody ELISA); set-up: species or system mouse
Protocol: (10A, 10B) Different concentrations of mCD1d-glycolipid complexes coated on the ELISA plate were incubated with the saturated amount of L363 antibody conjugated with biotin, followed by streptavidin-HRP detection and ELISA measurement. (10A) The relationship between OD values reflecting L363 antibody binding and the concentration of CD1ddi-glycolipids complex was plotted. (10B) The dissociation constant (KD) between L363 antibody and the indicated mCD1d-glycolipid complex was calculated as described in Materials and methods. (10C) The relationship between OD values reflecting L363 antibody binding and the concentration of glycolipids was plotted. (10D) KD values of the binary complex were calculated from the linear regression of the Scatchard transformation of the L363 antibody binding curve (10C).
Different concentrations of mCD1d^di-glycolipid complexes coated on the ELISA plate were incubated with the saturated amounts of L363 antibody (BioLegend) conjugated with biotin, followed by streptavidin-HRP detection and ELISA measurement. The KD between L363 antibody and the indicated mCD1d^di-glycolipid complex was calculated from the linear regression of the Scatchard transformation of the L363 antibody binding curve using GraphPad Prism software. […] Next, the KD of the binary complex was determined as follows. […]

B6 wild type mice = details: previously reported; cited from earlier work
B6 WT mice splenocytes = experiment: FACS analyses of WT mouse immune cells after glycolipid stimulation; assay type: in vivo; details: 1 μg/mouse; 3 days
Protocol: B6 WT mice treated with the indicated glycolipid (1 μg/mouse) or vehicle (1% DMSO in PBS) were sacrificed at 72 hr post-injection and their splenocytes were subjected to FACS analysis. (8A) The total splenocytes, (8B) total CD11Chi cells, (8C) CD11Chi/CD80+ cells, (8D) CD11Chi/CD86+ cells, (8E) CD4^+ T cells and (8F) CD8^+ T cells.
B6 WT or Jα18 KO mice treated with specific glycolipid (1 μg/mouse) or vehicle (1% DMSO in PBS) were sacrificed at 72 hr post-injection and their spleens were harvested. After pressing spleens through 70 um strainer and lysis of erythrocytes, the nucleated cells were resuspended in PBS buffer containing azide (0.05%) and stained with antibodies recognizing the indicated cell surface antigens for 30 min at 4° C. After washing, the splenocytes were subjected to FACS analysis. The antibodies against CD3, CD4, CD8α, CD11c, CD80, and CD86 were obtained from BD Bioscience-Pharmingen.
Next, we analyzed the expansion/activation of immune cells in WT mice 3 days after glycolipid stimulation. The numbers of total T cells, CD4^+ T and CD8^+ T cells were higher in mice treated by GSLs with αGal head than those treated by GSLs with αGlc (FIGS. 2C, 8E and 8F). This was in line with the observation that more cytokines/chemokines were induced by GSLs with αGal than GSLs with αGlc in mice (FIGS. 2A, 2B and 7). […] As compared to 7DW8-5-Glc, C1-Glc not only expanded ˜1.3 fold more splenocytes and DCs (FIGS. 8A and 8B) but also activated ˜3.5 fold more CD80^+ DCs as well as ˜3 fold more CD86^+ DCs (FIGS. 8C and 8D). The increased expansion/activation of DCs may contribute to the stronger immunogenicity triggered by C1-Glc and C34-Glc as compared to 7DW8-5-Glc in vivo.

| SMILES | fold stronger interaction with iNKT TCR than mCD1d-7DW8-5-Glc complex ([1]; mCD1d complex) | binding avidity to mCD1d dimer, fold greater than αGalCer (mCD1d dimer) | dose sufficient for immune stimulation (B6 wild type mice) | staining of murine iNKT cells with CD1d-glycolipid dimer [1] | expansion of immune cells in WT mice (B6 WT mice splenocytes) |
| --- | --- | --- | --- | --- | --- |
| CCCCCCCCCCCCCC[C@@H](O)[C@@H](O)[C@H](CO[C@H]1O[C@H](CO)[C@H](O)[C@H](O)[C@H]1O)NC(=O)CCCCCCCCCCc1ccc(F)cc1 [Compound 7DW8-5, reference compound] | ~10 fold | ~20 fold | 0.1 μg/mouse |  |  |
| CC[C@@H](O)[C@@H](O)[C@H](CO[C@H]1OC(CO)[C@@H](O)C(O)C1O)NC(=O)Cc1ccc(F)cc1 (stereo partly drawn) [Compound 7DW8-5-Glc] |  | ~20 fold |  |  |  |
| CCCCCCCCCCCCCC[C@@H](O)[C@@H](O)[C@H](CO[C@H]1O[C@H](CO)[C@@H](O)[C@H](O)[C@@H]1O)NC(=O)CCCCCCCCCCc1ccc(F)cc1 [Compound 7DW8-5-Man] |  |  |  | lack of staining | did not expand any types of immune cells |
